The values below come from the NIST ThermoML archive (doi:10.1016/j.jct.2004.06.009).

± gives the expanded uncertainty stated by the source.

Data set [1] is described as follows: Molar enthalpy of transition or fusion.

Regarding `CC12CC3CC(C1)CC(C)(C3)C2` [1,3-dimethyladamantane], the “Molar enthalpy of transition or fusion” value in data set [1] (Crystal 1) is 0.368 ± 0.0098 kcal/mol; in data set [1] (Crystal 2) it was 2.225 ± 0.00717 kcal/mol. In addition, the Triple point temperature (Crystal 1) worked out at 247.79 ± 0.16 K and the Triple point temperature (Crystal 2) turned out to be 223.38 ± 0.16 K.
In the case of `CCC12CC3CC(CC(C3)C1)C2` [1-ethyladamantane], in data set [1] (Crystal), the “Molar enthalpy of transition or fusion” value is 2.696 ± 0.012 kcal/mol. Under “Crystal”, the Triple point temperature was found to be 225.56 ± 0.16 K.
